Values joined by “and” are separate entries in the source; they are usually repeats but may differ in a detail not shown here. Equal values may be shown once.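 Five concentrations, 48 hours, 96-well plates. GI50 = concentration required for 50% inhibition of growth. Definition used: TGI = concentration required for complete inhibition of growth.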
Experiments:
Test in all cases: growth of human tumour cells (NCI), 48 h
[1] = test system: NCI-H23 lung
[2] = test system: TK-10 renal
[3] = test system: UACC-257 melanoma
[4] = test system: LOX IMVI melanoma
[5] = test system: BT-549 breast
[6] = test system: NCI/ADR-RES ovarian
[7] = test system: SN12C renal
[8] = test system: IGROV1 ovarian
[9] = test system: MALME-3M melanoma
[10] = test system: HOP-92 NSCLC

Row | Structure (SMILES) | TGI [1] | TGI [2] [µM] | TGI [3] [µM] | TGI [4] | TGI [5] [µM] | TGI [6] [µM] | TGI [7] | TGI [8] [µM] | TGI [9] [µM] | TGI [10] | GI50 [1] | GI50 [4] | GI50 [10] | GI50 [7]
1 | S=c1[nH]nc(CCCCCCCCc2n[nH]c(=S)o2)o1 | > 100 µM | > 100 | > 100 | > 100 µM | > 100 | > 100 | > 100 µM | > 100 |  |  |  |  |  | 
2 | O=CC1=CCC2c3[nH]c4ccccc4c3CCN2C1 (configuration not stated) | 320 µM | > 396 | 347 | 111 µM |  |  | > 396 µM | > 396 | > 396 | > 396 µM |  |  |  | 
3 | CSc1nc[nH]c1C(N)=S | > 100 µM | > 100 | > 100 | > 100 µM | > 100 | > 100 |  | > 100 | > 100 |  |  |  |  | 
4 | CC(C)[C@@H]1NC(=O)[C@@H]2N=C(O[C@H]2C)[C@H](C(C)C)NC(=O)C2N=C1O[C@H]2C | > 100 µM | > 100 | > 100 | > 100 µM |  | > 100 | > 100 µM | > 100 | > 100 | > 100 µM |  |  |  | 
5 | CC1(Cl)CC(C)(/C=C/Cl)C(Cl)CC1Cl (configuration not stated) | 44.1 µM | 76.7 |  |  |  |  | 31 µM | 30.4 | 29.6 | 16.8 µM |  |  |  | 
6 | CC(C)(CN1CCCCC1)C(=O)CC(SCCS(=O)(=O)O)c1ccc(Cl)cc1 (configuration not stated) | 16.6 µM | 18.9 | 20.5 |  | 22.7 | 34 | 15.8 µM | 20.4 | 24.3 | 7.13 µM |  |  |  | 
7 | C/C(Nc1ccc(Cl)cc1)=C1/CCOC1=O | > 100 µM | > 100 | > 100 |  | > 100 | > 100 | > 100 µM | > 100 | > 100 | > 100 µM |  |  |  | 
8 | CCOC(=O)C1CCC(=O)N1C(=O)c1ccc(Cl)cc1 (configuration not stated) | > 100 µM |  | > 100 | > 100 µM | > 100 | > 100 | > 100 µM | > 100 | > 100 | > 100 µM |  |  |  | 
9 | C(=C\c1c2oc(-c3ccccc3)cc(-c3ccccc3)c-2c2ccccc12)/C=C1\c2ccccc2-c2c(-c3ccccc3)cc(-c3ccccc3)[o+]c21 | > 100 µM | > 100 | > 100 | > 100 µM |  |  | > 100 µM | > 100 | > 100 | > 100 µM |  |  |  | 
10 | COc1cccc(N=NN2CCCC2)c1 | > 100 µM | > 100 | > 100 | > 100 µM | > 100 | > 100 | > 100 µM | > 100 |  | > 100 µM |  |  |  | 
11 | O=C(c1ccccc1)c1cc(Cl)ccc1NCn1nnc2ccccc21 | > 100 µM | > 100 | > 100 | > 100 µM |  |  | > 100 µM | > 100 |  | > 100 µM |  |  |  | 
12 | CC(C)=CCCC1(C)C2COC(=O)C21 (configuration not stated) | > 100 µM and 60.1 µM | > 100 | > 100 | > 100 µM and 34.7 µM | > 100 |  | > 100 µM and 39.9 µM | > 100 | > 100 | > 100 µM and 97.3 µM | > 100 µM and 26.7 µM | 38.8 µM and 19 µM | > 100 µM and 34.2 µM | 52.8 µM and 19.3 µM
13 | CC(=O)N[C@@H](Cc1ccc(O)cn1)C(=O)NC1CCCCC1 | > 100 µM | > 100 | > 100 | > 100 µM | > 100 | > 100 | > 100 µM | > 100 |  | > 100 µM |  |  |  | 
14 | COc1cc(/C=C2/Oc3c(OC)cccc3C2=O)ccc1O | > 100 µM | > 100 | > 100 | > 100 µM | > 100 |  | > 100 µM | > 100 |  | > 100 µM |  |  |  | 
15 | Cc1ccc(NCCN(C)C)c2c(=O)c3cc(O)ccc3sc12 | 16.8 µM | 33.9 | 20.7 | 7.84 µM | 20.3 |  | 14 µM | 17.2 | 11.2 | 14.4 µM |  |  |  | 
16 | COC(=O)C(NC(=O)c1ccccc1)C(c1c(O)cc(O)cc1O)P(=O)(OC)OC (configuration not stated) | > 100 µM | > 100 | > 100 | > 100 µM |  |  | > 100 µM | > 100 |  | > 100 µM |  |  |  | 
17 | CCCCCCCCCCCCC1N=C(N)N2CCCC2=C1C(=O)OC (configuration not stated) | 6.17 µM | > 48.7 | 3.73 |  | 35 | 20.4 |  | 7.94 | 3.64 | 10.3 µM |  |  |  | 
18 | CCOC(=O)C1C(c2ccc(OC)cc2)c2c([nH]n(-c3ccccc3)c2=O)CC1(C)O (configuration not stated) | > 100 µM | > 100 | > 100 | > 100 µM |  | > 100 | > 100 µM | > 100 | > 100 | > 100 µM |  |  |  | 
19 | NC(N)=NCCCC(NC(=O)c1c2ccccc2nc2ccccc12)C(=O)O (configuration not stated) | > 100 µM | > 100 | > 100 | > 100 µM | > 100 | > 100 | > 100 µM | > 100 |  | > 100 µM |  |  |  | 
20 | O=C1c2ccccc2C(=O)c2sc(Nc3cc(Cl)ccc3Cl)nc21 | 28.7 µM | 29.4 | 7.76 | 5.78 µM |  | 7.31 | 3.17 µM | 24.3 | 3.33 | 36.2 µM |  |  |  | 
21 | CCCCCCCCCCCCC1N=C(N)NC2(CCCO2)C1C(=O)OC (configuration not stated) | 18.2 µM | 15.5 | 19 |  | 18.5 | 42.9 | 34.2 µM | 6.72 | 38 | 17.2 µM |  |  |  | 
22 | C[n+]1c(-c2ccc(/C=N/NC(=O)C(=O)N/N=C/c3ccc(-c4cn5ccccc5[n+]4C)cc3)cc2)cn2ccccc21 | > 100 µM | > 100 | > 100 |  | > 100 | > 100 | > 100 µM | > 100 | > 100 | > 100 µM |  |  |  | 
23 | Cn1c(NC(=O)NC23CC4CC(CC(C4)C2)C3)nc2ccccc21 | > 100 µM | > 100 | > 100 | > 100 µM |  |  | > 100 µM | > 100 | 81.6 | 90.6 µM |  |  |  | 
